What was measured:
[1] = biological target: Urease (Canavalia ensiformis) (UniProt P07374); test: Reactivation of jack bean urease activity in presence of DTT after 40 mins
[2] = biological target: Urease (Canavalia ensiformis) (UniProt P07374); test: Inhibition of jack bean urease assessed as residual activity at 30 uM
[3] = biological target: Urease (Canavalia ensiformis) (UniProt P07374); test: Inhibition of jack bean urease assessed as residual activity at 50 uM
[4] = biological target: Urease (Canavalia ensiformis) (UniProt P07374); test: Inhibition of jack bean urease assessed as residual activity at 85 uM

Urease (Canavalia ensiformis), sequence (P07374 whole entry, looked up): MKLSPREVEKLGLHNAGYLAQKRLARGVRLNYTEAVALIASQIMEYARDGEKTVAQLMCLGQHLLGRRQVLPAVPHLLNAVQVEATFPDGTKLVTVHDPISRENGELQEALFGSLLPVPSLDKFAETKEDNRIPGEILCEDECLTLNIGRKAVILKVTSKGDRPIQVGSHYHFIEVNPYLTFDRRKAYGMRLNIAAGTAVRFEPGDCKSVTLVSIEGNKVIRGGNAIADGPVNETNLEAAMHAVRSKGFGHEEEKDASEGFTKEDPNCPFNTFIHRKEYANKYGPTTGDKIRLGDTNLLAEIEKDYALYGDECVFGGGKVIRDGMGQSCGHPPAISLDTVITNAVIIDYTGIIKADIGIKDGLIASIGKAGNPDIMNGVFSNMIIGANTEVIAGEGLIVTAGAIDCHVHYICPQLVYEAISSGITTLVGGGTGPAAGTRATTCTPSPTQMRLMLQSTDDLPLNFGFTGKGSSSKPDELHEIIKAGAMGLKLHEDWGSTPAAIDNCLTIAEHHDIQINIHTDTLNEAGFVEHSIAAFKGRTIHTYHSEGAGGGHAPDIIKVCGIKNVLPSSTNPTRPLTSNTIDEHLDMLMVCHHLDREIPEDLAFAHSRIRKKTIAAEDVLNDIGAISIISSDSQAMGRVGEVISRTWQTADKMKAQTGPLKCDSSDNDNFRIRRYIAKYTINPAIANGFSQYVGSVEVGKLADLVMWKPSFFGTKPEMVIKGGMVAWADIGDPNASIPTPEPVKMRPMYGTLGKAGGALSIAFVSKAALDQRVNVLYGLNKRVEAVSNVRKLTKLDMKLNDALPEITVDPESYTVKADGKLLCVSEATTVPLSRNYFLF

`O=C1C=CC(=O)c2ccccc21` was tested, and the Activity [1] was 40%, the Activity [2] was 40% and the Activity [3] was 24%. The Activity [4] was 7%.

— ChEMBL document CHEMBL1147964, “Double mode of inhibition-inducing interactions of 1,4-naphthoquinone with urease: arylation versus oxidation of enzyme thiols” (Bioorg Med Chem, 2007)
